Measurements from paper PMC11259170, “Small-molecule probe for IBD risk variant GPR65 I231L alters cytokine signaling networks through positive allosteric modulation” (Science Advances, 2024).
Converted amounts (≈) assume the structure as drawn.

Tests used:
[1] = system: GPR65 WT mouse splenocytes; test: cAMP detection in GPR65 WT mouse splenocytes; format: cell-based; conditions: 0 to 50 μM, pH 7.2, GPR65-dependent
Protocol: cAMP was measured in cells using the Lance Ultra cAMP Kit. Spleens were harvested from GPR65 WT and GPR65 KO mice, homogenized and passed through a 70-μm cell strainer into harvest buffer [PBS, 0.5% bovine serum albumin (BSA), and 2 mM EDTA]. Cells were then centrifuged, washed with harvest buffer, and resuspended in red blood cell lysis buffer for 10 min at RT. Cells were counted and resuspended in assay buffer (25-ml DMEM, 0.5-ml 7.5% sodium bicarbonate, and 333-μl 7.5% BSA stabilizer) and adjusted to pH 7.2 with 1 M NaOH. Splenocytes were added to a white opaque OptiPlate 384-well microplates at a density of 100,000 cells per well in 20 μl. Compounds were added into the wells using a pin transfer tool, and plates were incubated at 37°C, 5% CO2 for 40 min. Each detection reagent (5 μl) was added to the plate and incubated at RT in the dark for 1 hour. Eu-cAMP tracer and FRET emissions were read using a PerkinElmer EnVision Multimode plate reader (ENVISION21040010). Data analysis was performed using GraphPad Prism.

hGPR4-SmBiT = target: T1, hGPR4-SmBiT (Homo sapiens, UniProt P46093); test: Nano-BiT target engagement, LgBiT-mGs recruitment to hGPR4-SmBiT; format: cell-based; conditions: 10 μM
T1 construct: expressed in transfected cells; host or cells: Expi293F (Gibco), transient transfection
T1 sequence (P46093 whole entry): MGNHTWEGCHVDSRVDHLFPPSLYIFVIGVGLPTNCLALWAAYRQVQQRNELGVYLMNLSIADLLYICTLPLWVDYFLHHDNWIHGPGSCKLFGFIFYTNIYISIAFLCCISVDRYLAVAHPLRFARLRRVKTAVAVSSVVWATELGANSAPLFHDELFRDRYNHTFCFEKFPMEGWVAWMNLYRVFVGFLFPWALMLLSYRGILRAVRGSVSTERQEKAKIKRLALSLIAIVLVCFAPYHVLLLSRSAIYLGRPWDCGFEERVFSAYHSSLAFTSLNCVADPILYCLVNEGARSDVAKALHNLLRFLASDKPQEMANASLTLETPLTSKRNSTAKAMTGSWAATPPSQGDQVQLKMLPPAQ
Protocol: Target engagement was measured in Expi293F (Gibco, 100044202) cells using the Nano-Glo Live Cell Assay System (Promega, N2011). Nano-BiT plasmids were cloned from GPR65-, GPR4-, and GPR68-Tango plasmids. GPR65-Tango (Addgene plasmid # 66370; http://n2t.net/addgene:66370; RRID:Addgene_66370), GPR4-Tango (Addgene plasmid # 66358; http://n2t.net/addgene:66358; RRID:Addgene_66358), and GPR68-Tango (Addgene plasmid # 66371; http://n2t.net/addgene:66371; RRID:Addgene_66371) were gifts from Bryan Roth. Expi293F cells were transfected 1 day before kinetics with 500 ng of each plasmid using ExpiFectamine 293 Transfection Kit (Gibco, A14525). After 24 hours, cells were collected, washed, and resuspended in room temperature 0.1% PBS-BSA, adjusted to pH 7.4 using 1 M NaOH. Cells were transferred to white opaque 96-well microplates (100 μl per well, PerkinElmer, 6005290), followed by addition of the Nano-Glo Live Cell Reagent (25 μl per well). Baseline luminescence was measured for 10 cycles (1 cycle = 90 s) before adding compounds. All luminescence measurements were made on BMG Labtech PHERAstar FSX. Data analysis was performed using GraphPad Prism.

[2] = system: WT HeLa cells expressing hGPR65; test: Cytotoxicity assay (CellTiter-Glo, 72 hours); format: cell-based, human
Protocol: WT HeLa cells expressing hGPR65 were seeded at 2000 cells per well in 384-well plates. Compounds were tested in 10-point dose, starting at 50 μM. Cells were incubated with compounds for 72 hours at 37°C, 5% CO2. Cytotoxicity was measured using CellTiter-Glo Luminescent Cell Viability Assay (Promega, G7572) according to the manufacturer’s protocol. Luminescence measurements were made on BMG Labtech PHERAstar FSX. Data analysis was performed using GraphPad Prism.

[3] = Solubility in phosphate buffer; format: physicochemical; conditions: read-out: solubility in phosphate buffer

SMILES | cAMP production in mouse splenocytes, compared [1] | response in cells expressing hGPR4-SmBiT (hGPR4-SmBiT) | cell viability ([2]; 50 μM, 72 hours) | cytotoxicity ([2]; 72-hour incubation, 0-50 μM) | solubility [3] [µM]
CN1N=C(SCc2ccc(Cl)cc2Cl)Sc2c1cnn(C)c2=O [BTB09089, reference compound] | induced higher cAMP production than BRD2813 | – | – | – | –
Cc1ccc(NC(=O)c2cnn3c(O)cc(-c4ccc(COC(C)C)cc4)nc23)nc1 [BRD5075, O=C(NC1=NC=C(C)C=C1)C2=C3N(N=C2)C(O)=CC(C4=CC=C(COC(C)C)C=C4)=N3] | – | failing to elicit responses | slight decrease in cell viability | not cytotoxic | 116 (≈ 48.4 µg/mL)
